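Assay format: 96-well plates, 48-hour exposure. TGI is the concentration that stops growth completely.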
Key:
Assay in all cases: NCI tumour cell line growth inhibition, 48 h
MCF7 breast = system: MCF7 breast
KM12 colon = system: KM12 colon
CCRF-CEM leukemia = system: CCRF-CEM leukemia
SF-295 CNS = system: SF-295 CNS
UACC-257 melanoma = system: UACC-257 melanoma
A498 renal = system: A498 renal
UO-31 renal = system: UO-31 renal
HS 578T breast = system: HS 578T breast
NCI-H226 lung = system: NCI-H226 lung
SNB-19 CNS = system: SNB-19 CNS
NCI-H460 lung = system: NCI-H460 lung
ACHN renal = system: ACHN renal
HCC-2998 colon = system: HCC-2998 colon
HCT-116 colon = system: HCT-116 colon
SK-MEL-2 melanoma = system: SK-MEL-2 melanoma
RXF 393 renal = system: RXF 393 renal
HOP-92 NSCLC = system: HOP-92 NSCLC
SK-OV-3 ovarian = system: SK-OV-3 ovarian
TK-10 renal = system: TK-10 renal
MDA-MB-435 = system: MDA-MB-435
NCI/ADR-RES ovarian = system: NCI/ADR-RES ovarian
U251 CNS = system: U251 CNS
SW-620 colon = system: SW-620 colon
PC-3 prostate = system: PC-3 prostate
HL-60(TB) leukemia = system: HL-60(TB) leukemia
SR leukemia = system: SR leukemia
HCT-15 colon = system: HCT-15 colon
COLO 205 colon = system: COLO 205 colon
UACC-62 melanoma = system: UACC-62 melanoma
SNB-75 CNS = system: SNB-75 CNS
HT29 colon = system: HT29 colon
DU-145 prostate = system: DU-145 prostate
HOP-62 NSCLC = system: HOP-62 NSCLC
K-562 leukemia = system: K-562 leukemia
T-47D breast = system: T-47D breast
M14 melanoma = system: M14 melanoma
IGROV1 ovarian = system: IGROV1 ovarian
OVCAR-4 ovarian = system: OVCAR-4 ovarian
BT-549 breast = system: BT-549 breast
SF-539 CNS = system: SF-539 CNS
SK-MEL-5 melanoma = system: SK-MEL-5 melanoma
SK-MEL-28 melanoma = system: SK-MEL-28 melanoma
EKVX NSCLC = system: EKVX NSCLC
SF-268 CNS = system: SF-268 CNS
LOX IMVI melanoma = system: LOX IMVI melanoma
MOLT-4 leukemia = system: MOLT-4 leukemia
OVCAR-8 ovarian = system: OVCAR-8 ovarian
MDA-MB-231 breast = system: MDA-MB-231 breast
CAKI-1 renal = system: CAKI-1 renal
786-0 renal = system: 786-0 renal
NCI-H23 lung = system: NCI-H23 lung

`CC(C)(C)/C(O)=C\c1nc2cc(F)c(F)cc2[nH]c1=O` showed a TGI (MCF7 breast) greater than 100 µM, a TGI (KM12 colon) greater than 100 µM and a TGI (CCRF-CEM leukemia) greater than 100 µM. The TGI (SF-295 CNS) was greater than 100 µM, the TGI (UACC-257 melanoma) was greater than 100 µM and the TGI (A498 renal) was greater than 100 µM. It also gave a TGI (UO-31 renal) greater than 100 µM, a TGI (HS 578T breast) greater than 100 µM and a TGI (NCI-H226 lung) greater than 100 µM. For the same molecule, the TGI (SNB-19 CNS) was greater than 100 µM, the TGI (NCI-H460 lung) was greater than 100 µM and the TGI (ACHN renal) was greater than 100 µM. It also gave a TGI (HCC-2998 colon) greater than 100 µM, a TGI (HCT-116 colon) greater than 100 µM and a TGI (SK-MEL-2 melanoma) greater than 100 µM. For the same molecule, the TGI (RXF 393 renal) was greater than 100 µM, the TGI (HOP-92 NSCLC) was greater than 100 µM and the TGI (SK-OV-3 ovarian) was greater than 100 µM. For the same molecule, the TGI (TK-10 renal) was greater than 100 µM, the TGI (MDA-MB-435) was greater than 100 µM and the TGI (NCI/ADR-RES ovarian) was greater than 100 µM. For the same molecule, the TGI (U251 CNS) was greater than 100 µM, the TGI (SW-620 colon) was greater than 100 µM and the TGI (PC-3 prostate) was greater than 100 µM. The TGI (HL-60(TB) leukemia) was greater than 100 µM, the TGI (SR leukemia) was greater than 100 µM and the TGI (HCT-15 colon) was greater than 100 µM. For the same molecule, the TGI (COLO 205 colon) was greater than 100 µM, the TGI (UACC-62 melanoma) was greater than 100 µM and the TGI (SNB-75 CNS) was greater than 100 µM. The TGI (HT29 colon) was greater than 100 µM, the TGI (DU-145 prostate) was 57 µM and the TGI (HOP-62 NSCLC) was greater than 100 µM. It also gave a TGI (K-562 leukemia) greater than 100 µM, a TGI (T-47D breast) greater than 100 µM and a TGI (M14 melanoma) greater than 100 µM. The TGI (IGROV1 ovarian) was greater than 100 µM, the TGI (OVCAR-4 ovarian) was greater than 100 µM and the TGI (BT-549 breast) was greater than 100 µM. It also gave a TGI (SF-539 CNS) greater than 100 µM, a TGI (SK-MEL-5 melanoma) greater than 100 µM and a TGI (SK-MEL-28 melanoma) greater than 100 µM. For the same molecule, the TGI (EKVX NSCLC) was greater than 100 µM, the TGI (SF-268 CNS) was greater than 100 µM and the TGI (LOX IMVI melanoma) was greater than 100 µM. It also gave a TGI (MOLT-4 leukemia) greater than 100 µM, a TGI (OVCAR-8 ovarian) greater than 100 µM and a TGI (MDA-MB-231 breast) of 71.7 µM. For the same molecule, the TGI (CAKI-1 renal) was greater than 100 µM, the TGI (786-0 renal) was greater than 100 µM and the TGI (NCI-H23 lung) was greater than 100 µM.

From PubChem BioAssay (NCI)
